We go through 3 molecules from ChEMBL document CHEMBL4334448, “Chivosazole A Modulates Protein-Protein Interactions of Actin” (J Nat Prod, 2019).

Activity calls are given as the source filed them. The calls are words filed in the database; no cut-off is given here.

Experiment [1] deals with Actin, alpha skeletal muscle (Oryctolagus cuniculus) (UniProt P68135). Put plainly: Inhibition of immobilized rabbit skeletal muscle alpha-actin interaction with cofilin at 56 uM pretreated for 30 mins followed by cofilin addition measured after 1 hr by pull-down assay.
Experiment [2] has the same target. In words: Inhibition of immobilized rabbit skeletal muscle alpha-actin interaction with gelsolin at 12.5 uM pretreated for 30 mins followed by gelsolin addition measured after 1 hr by pull-down assay.
Experiment [3] shares this target. In words: Inhibition of immobilized rabbit skeletal muscle alpha-actin interaction with profilin at 66.7 uM pretreated for 30 mins followed by profilin addition measured after 1 hr by pull-down assay.
Experiment [4] shares this target. In words: (§1) Inhibition of rabbit skeletal muscle alpha-actin polymerization measured after 24 hrs in presence of ATP and fluorescent pyrene-labelled actin by fluorescence based assay.
Experiment [5] deals with Actin, alpha skeletal muscle (Oryctolagus cuniculus, UniProt P68135). The description is as §1.
In experiment [6] the target is Actin, alpha skeletal muscle (Oryctolagus cuniculus) (UniProt P68135). In words: Inhibition of immobilized rabbit skeletal muscle alpha-actin interaction with thymosin-beta4 assessed as decrease in cross-linked complex formation at 40 uM pretreated for 30 mins followed by thymosin-beta4 addition measured after 45 mins by cross-linking assay.
Experiment [7] has the same target. In words: Inhibition of immobilized rabbit skeletal muscle alpha-actin interaction with thymosin-beta4 at 40 uM pretreated for 30 mins followed by thymosin-beta4 addition measured after 45 mins by cross-linking assay.
For experiment [8], the system named is HUVEC. In words: Inhibition of cell migration in human HUVEC cells assessed as decrease in cell velocity measured after 16 hrs by crystal violet staining based scratch assay. It is filed as functional.
For experiment [9], the system named is HUVEC. Put plainly: Antiproliferative activity against human HUVEC measured after 72 hrs. It is filed as cell-based.
The target in experiment [10] is Actin, alpha skeletal muscle (Oryctolagus cuniculus) (UniProt P68135). In words: Binding affinity to immobilized rabbit skeletal muscle alpha-actin assessed as formation of G-actin dimers at 40 uM and pH 6.8 to 8 treated for 30 mins in absence of thymosin-beta4 by size-exclusion chromatography. For orientation: Size exclusion chromatography separates by hydrodynamic size, large species first.

The target is the same in experiment [11]. Put plainly: Inhibition of rabbit skeletal muscle alpha-actin polymerization induced by Mg-ATP assessed as decrease in elongation rate at 500 nM to 5 uM measured every 1 sec for 5 mins in presence of Turkey gizzard alpha-actinin and […] fluorescent labelled actin by TIRF microscopy analysis.
Experiment [12] shares this target. In words: Binding affinity to immobilized rabbit skeletal muscle alpha-actin assessed change in retention time of G-actin dimers at 40 uM and pH 6.8 to 8 treated for 30 mins in absence of thymosin-beta4 by size-exclusion chromatography.
For experiment [13] the target is unchanged. Put plainly: Induction of rabbit skeletal muscle alpha-actin depolymerization assessed as destabilization of F-actin 5 uM measured every 15 sec for 90 mins in presence of Turkey gizzard alpha-actinin and […] fluorescent labelled actin by TIRF microscopy analysis.
For experiment [14] the target is unchanged. Put plainly: Inhibition of rabbit skeletal muscle alpha-actin nucleation at 500 nM to 5 uM in presence of Turkey gizzard alpha-actinin and […] fluorescent labelled actin by TIRF microscopy analysis.
For experiment [15], the system named is HUVEC. Put plainly: Induction of morphological changes in human HUVEC cells assessed as disruption of F-actin fibers at 10 nM to 100 nM incubated for 1 hr by rhodamine-phalloidin staining based fluorescence assay. In kind it is functional, cell-based.
Experiment [16] deals with HUVEC. In words: Induction of morphological changes in human HUVEC cells assessed as amorphous actin aggregation in nucleus incubated for 1 hr by Hoechst staining based fluorescence assay. It is filed as functional, cell-based.

For `CO[C@@H]1C[C@@H](O)/C=C/C=C/C=C\[C@H](C)[C@@H]([C@@H](C)[C@@H](O)C[C@@H](C)O)OC(=O)\C=C/C=C/C=C\C(C)=C\[C@@H](C)[C@@H](O)/C=C\C=C\c2coc(n2)[C@@H]1C`, the inhibition entry in [1], in [2] and in experiment [3] was “Active” throughout.
With `C/C1=C/C(=O)O[C@@H]2C[C@@H](CC[C@H](C)/C=C\CC1)O[C@@](O)([C@@H]1CSC(=O)N1)C2` [LATRUNCULIN B], the inhibition entry in experiment [4] is “Dose-dependent effect”. Moreover, the concentration for half-maximal inhibition (IC50) in [5] came to 8470 nM; in the experiment with HUVEC [8] it was 478 nM; with HUVEC [9] it was 612 nM. In addition, the outcome in experiment [6] was Active. For the same molecule, the inhibition entry in [7] is “Active”. Also, the inhibition entry in experiment [1], in [2] and in experiment [3] was “inactive” in each case. In [10], the outcome was inactive.
Consider `CO[C@H]1[C@H](O[C@H]2/C=C\C=C\c3coc(n3)[C@H](C)[C@H](OC)C[C@@H](O)/C=C/C=C/C=C\[C@H](C)[C@@H]([C@@H](C)[C@@H](O)C[C@@H](C)O)OC(=O)\C=C/C=C/C=C\C(C)=C\[C@H]2C)O[C@H](C)[C@@H](O)[C@@H]1OC`, for which, in [4], the inhibition entry was “Dose-dependent effect”. The IC50 in [5] is 15200 nM; in the experiment on HUVEC [8] it was 31.7 nM; in the experiment on HUVEC [9], 2.98 to 3 nM. Further, the inhibition result in [11], in experiment [7], in [1], in [2], in experiment [14] and in experiment [3] was “Active” in each case. The outcome (in experiment [12]; in experiment [6]; in experiment [13]; in the experiment with HUVEC [15]; in the experiment on HUVEC [16]; in experiment [10]) was Active.

Broadly, the IC50 is the midpoint of a concentration-inhibition curve.
